Reference: ChEMBL document CHEMBL1240417, “QSAR studies of bioactivities of 1-(azacyclyl)-3-arylsulfonyl-1H-pyrrolo[2,3-b]pyridines as 5-HT6 receptor ligands using physicochemical descriptors and MLR and ANN-modeling” (Eur J Med Chem, 2010)

biological target: 5-hydroxytryptamine receptor 6 (Homo sapiens, UniProt P50406); assay: Binding affinity to 5HT6 receptor
Sequence (P50406 whole entry): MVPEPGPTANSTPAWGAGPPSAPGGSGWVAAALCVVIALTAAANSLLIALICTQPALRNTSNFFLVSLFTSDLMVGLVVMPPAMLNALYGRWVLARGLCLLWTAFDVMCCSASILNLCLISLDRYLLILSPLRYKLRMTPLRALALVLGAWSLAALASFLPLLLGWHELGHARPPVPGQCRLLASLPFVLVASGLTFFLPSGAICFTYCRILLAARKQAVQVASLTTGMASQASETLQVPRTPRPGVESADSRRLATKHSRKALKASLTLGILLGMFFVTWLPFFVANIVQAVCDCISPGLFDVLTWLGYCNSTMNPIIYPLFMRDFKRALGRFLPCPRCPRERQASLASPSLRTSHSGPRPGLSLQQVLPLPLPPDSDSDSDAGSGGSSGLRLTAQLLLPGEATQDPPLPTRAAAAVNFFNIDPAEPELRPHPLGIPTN

Compound | Ki [nM]
O=S(=O)(c1cn(C2CCCNC2)c2ncccc12)c1c(Cl)nc2sccn12 (centres undefined) | 0.708
CN1CCCC(n2cc(S(=O)(=O)c3c(Cl)nc4sccn34)c3cccnc32)C1 (centres undefined) | 2
CCN1CCCC(n2cc(S(=O)(=O)c3c(Cl)nc4sccn34)c3cccnc32)C1 (centres undefined) | 0.708
O=S(=O)(c1ccc(Cl)s1)c1cn(C2CCNC2)c2ncccc12 (centres undefined) | 1
CC(C)N1CCCC(n2cc(S(=O)(=O)c3c(Cl)nc4sccn34)c3cccnc32)C1 (centres undefined) | 1.7
O=S(=O)(c1cn(C2CCNC2)c2ncccc12)c1c(Cl)nc2sccn12 (centres undefined) | 1
CN1CCC(n2cc(S(=O)(=O)c3c(Cl)nc4sccn34)c3cccnc32)C1 (centres undefined) | 0.794
CCN1CCC(n2cc(S(=O)(=O)c3c(Cl)nc4sccn34)c3cccnc32)C1 (centres undefined) | 1.41
CCN1CCCC(n2cc(S(=O)(=O)c3ccc(Cl)cc3)c3cccnc32)C1 (centres undefined) | 33.1
